Assay [1] relates to cardiac sympathetic afferent input. Conditions: anesthetized CHF rats; acute epicardial application; cited from earlier work.
The test system is the same in assay [2]. Conditions: anesthetized CHF dogs; acute epicardial application; cited from earlier work.
For assay [3], the system named is infarcted heart / CSAR activation. The experiment in a line: Cardiac plasma extravasation (Evans Blue area). The class given is in vivo, rat. The note with it: i.v. An excerpt: This example illustrates local anti-inflammatory effects of RTX in the infarcted heart. Myocardial ischemia causes the production and release of several metabolites including bradykinin, prostaglandins and protons that stimulate cardiac sympathetic afferent nerve endings leading to increases in BP, HR and sympathetic nerve activity. As cardiac TRPV1-expressing sympathetic afferents also subserve a “dual sensory-efferent” function and release pro-inflammatory neuropeptides, we hypothesized that plasma extravasation and cardiac neuroinflammation follows myocardial ischemia. […] Inflammation in the infarct area may be due to tissue death whereas in peri-infarct and remote areas may be due to cardiac sympathetic afferent mediated neuroinflammation. This may explain why RTX prevented cardiac inflammation in non-infarct areas to a greater extent than in the infarct area.

Like-named read-outs stand apart in the source and are kept apart here.

With `CCN(CC)CC(=O)Nc1c(C)cccc1C` [lidocaine], the “baseline MAP, HR and RSNA” value in assay [1] and in assay [2] was “decreased” in each case.
With Spantide II, the “cardiac plasma extravasation after MI (Evans Blue area)” value in assay [3] (Spantide II 0.3 mg/kg, 2 min prior to injection of Evans Blue) was “attenuated”. In addition, in assay [3] (acute pretreatment with Spantide II, 0.3 mg/kg), the “plasma extravasation following CSAR activation by epicardial capsaicin or bradykinin” value is on record as “largely be abolished”.

The record behind these values is patent publication US10729643B2, “Methods for administration and methods for treating cardiovascular diseases with resiniferatoxin” (priority 2013, dated 2020).
